Experimental data as given in article PMC4844649, “A first-in-Asian phase 1 study to evaluate safety, pharmacokinetics and clinical activity of VS-6063, a focal adhesion kinase (FAK) inhibitor in Japanese patients with advanced solid tumors” (Cancer Chemotherapy and Pharmacology, 2016).
“And” between values parts separate entries of the source, which are not always exact repeats. Equal entries are not always repeated. “Also recorded” adds a separate entry of the source. Where two headings read alike, the source gives them in different places.

How the values were obtained:
recombinant human FAK = conditions: in vitro; background statement, no reference given; read-out: IC50, inhibition of recombinant human FAK activity; cited from earlier work
[1] = test system: advanced solid tumor malignancies; assay: antitumor activity by RECIST v1.1; format: in vivo, human
Protocol: This was a phase 1, open-label, dose-escalation study to evaluate the safety and PK of VS-6063, a FAK inhibitor in Japanese subjects with advanced solid tumor malignancies. This study was expected to enroll up to 18 evaluable subjects with non-hematologic malignancies if 6 subjects were assigned at each of the 3 planned dose levels of 200, 400, and 600 mg BID. VS-6063 was administered orally, BID, in continuous 21 day cycles. Subject enrollment proceeded according to a standard 3 + 3 design. In the absence of DLT, each subject received oral VS-6063 (BID) for a minimum of 21 days of continuous daily dosing (1 cycle) and could continue to receive additional cycles of study treatment until disease progression was documented or other treatment discontinuation criteria were met. All patients within a cohort were required to complete 1 cycle (21 days) of dosing with <1 of 3 or <2 of 6 subjects experiencing a DLT prior to escalation to the next dose level in a new cohort. Three subjects were to be treated at each dose level until the first instance of DLT, after which up to 6 subjects were to be treated at that dose level. […] The MTD was defined as the highest dose level studied at which <1 subject out of 3 or <2 subjects out of 6 experienced a DLT. The RP2D was to be determined in discussion among the sponsor, medical monitor, and investigators. Observations related to PK and any VS-6063-related toxicities were included in the rationale supporting the RP2D. Safety and tolerability was assessed by the incidence and severity of AEs as determined by National Cancer Institute (NCI) Common Terminology Criteria for Adverse Events (CTCAE v4.03). The antitumor activity of study treatment was assessed according to the Response Evaluation Criteria in Solid Tumors (RECIST v1.1).

CYP 2C, 2D, 3A = conditions: preclinical evidence; no reference given; cited from earlier work
[2] = phase 1 plasma pharmacokinetics, Cycle 1 Days 1 and 15; format: in vivo, human; conditions: for V z, individual values: Day 15, N = 2, individual values are presented; for half-life / Cmax / AUC(0-t) / Tmax / AUC(0-inf): human, plasma; for AUC(0-t): read-out: AUC0–12h, GM (CV %)
Protocol: Pharmacokinetic samples were to be collected for determination of VS-6063 concentration and potential metabolites at the time points of Pre-dose (within 30 min of VS-6063 dosing), postdose (15 min, 30 min, and 1, 2, 4, 8, 12, and 24 h after VS-6063 administration) during Cycle 1 on Days 1 and 15. The analytical laboratory measured plasma concentrations using a validated method. Phoenix WinNonlin (v 6.3, Pharsight Inc., Mountain View, CA) was used to estimate all pharmacokinetic parameters using the non-compartmental analysis tool and the plasma model. Cmax and Tmax were determined by direct assessment (no calculations) of the concentration versus time data. All AUC calculations followed the linear trapezoidal rule. As data permitted, the terminal elimination rate constant (lambda z, λz) for VS-6063 data was calculated. Lambda z was determined by the slope of the regression line of the natural log transformed concentrations versus time with at least three data points not including the Cmax and a correlation coefficient (R^2) of regression >0.90. In instances where the λz range was not at least twofold greater than the calculated half-life, the resulting values (AUCINF, CL/F and Vz/F) were deemed unreliable and were not reported, although the half-life will be calculated and reported if the λz range met the R^2 requirements. The following PK parameters were to be calculated: oral clearance (CL/F), maximum concentration (Cmax), Tmax, half-life (T1/2), area under the curve (AUC), and other relevant parameters.

[3] = basis of the BID schedule; first-in-human experience; cited from earlier work
[4] = 24-h urine collection, elimination of VS-6063 and metabolites; format: in vivo, human; conditions: all dose cohorts
Excerpt: To assess the elimination of VS-6063 and its potential metabolites, total 24-h urine output was to be collected on Cycle 1 Day 1 and Cycle 1 Day 15 in conjunction with PK sampling.

[5] = preclinical; no reference given; cited from earlier work
other nontarget kinases = conditions: background statement, no reference given; cited from earlier work
recombinant human Pyk2 = conditions: in vitro; background statement, no reference given; read-out: IC50, inhibition of recombinant human Pyk2 activity; cited from earlier work
[6] = po, 200 mg, 200 mg BID oral, n = 3, Day 1
[7] = po, 200 mg, 200 mg BID oral, n = 3, Day 15
[8] = po, 400 mg, 400 mg BID oral, n = 3, Day 1
[9] = po, 400 mg, 400 mg BID oral, n = 3, Day 15
[10] = po, 600 mg, 600 mg BID oral, n = 3, Day 1
[11] = po, 600 mg, 600 mg BID oral, n = 3, Day 15

In the case of `CNC(=O)c1ccc(Nc2ncc(C(F)(F)F)c(NCc3nccnc3N(C)S(C)(=O)=O)n2)cc1` [VS-6063, defactinib], the IC50 (recombinant human FAK) is given as 600 pM, the “median time to disease progression, range across dose cohorts” value ([1]; 200, 400, 600 mg cohorts) is given as 61 to 64 days and the objective radiographic responses ([1]; 200–600 mg BID) is given as “No objective radiographic responses were observed”. The “best response overall: stable disease” value ([1]; out of 9 subjects (33 %), 1 subject in each dose cohort) was 3 subjects, the durable stable disease ([1]; two subjects (malignant mesothelioma 400 mg and rectal cancer 600 mg)) was “approximately 24 weeks” and the “potential for CYP 2C-, 2D- or 3A-mediated drug interactions” value (CYP 2C, 2D, 3A) was “low potential”. The “V z, individual values” ([2]; 200 mg BID oral) was 334 L and 99.6 L, the “exposure compared with that previously reported in non-Japanese subjects” value ([2]; 400 mg BID (RP2D)) was “comparable; also recorded: consistent with previously reported data in non-Japanese patients; also recorded: comparable to that previously reported in non-Japanese patients” and the “V z, individual values” ([2]; 600 mg BID oral) was 158 L and 3060 L. For the same compound, the “increase in exposure at doses above 400 mg BID” value ([2]; 600 mg versus 400 mg BID) was “did not result in a significant increase in VS-6063 exposure”, the “dose proportionality of plasma exposure (Cmax and AUC)” value ([2]; 200–600 mg BID) was “less than dose proportional” and the half-life ([2]; oral, 200–600 mg BID, Days 1 and 15, read-out: median half-life values, range across all dose regimens and both PK study days) was 2.3 to 4.3 h. It also gave a Cmax [2, 6] of 630 ng/mL, an AUC(0-t) [2, 6] of 3780 ng·h/mL and a Tmax ([2]; po, 200 mg, 200 mg BID oral, n = 3, Day 1, read-out: T max, median (range)) of 2 h. For the same compound, the half-life ([2]; po, 200 mg, 200 mg BID oral, n = 3, Day 1, read-out: t 1/2, median (range) (converted)) was 4.3 h, the Cmax [2, 7] was 930 ng/mL and the AUC(0-t) [2, 7] was 6240 ng·h/mL. For the same compound, the Tmax ([2]; po, 200 mg, 200 mg BID oral, n = 3, Day 15, read-out: T max, median (range)) was 2 h, the half-life ([2]; po, 200 mg, 200 mg BID oral, n = 3, Day 15, read-out: t 1/2, median (range) (converted)) was 2.95 h and the Cmax [2, 8] was 670 ng/mL. It also gave an AUC(0-t) [2, 8] of 3370 ng·h/mL, a Tmax ([2]; po, 400 mg, 400 mg BID oral, n = 3, Day 1, read-out: T max, median (range)) of 2 h and a half-life ([2]; po, 400 mg, 400 mg BID oral, n = 3, Day 1, read-out: t 1/2, median (range) (converted)) of 2.45 h. The Cmax [2, 9] was 960 ng/mL, the AUC(0-t) [2, 9] was 5710 ng·h/mL and the Tmax ([2]; po, 400 mg, 400 mg BID oral, n = 3, Day 15, read-out: T max, median (range)) was 2 h. For the same compound, the half-life ([2]; po, 400 mg, 400 mg BID oral, n = 3, Day 15, read-out: t 1/2, median (range) (converted)) was 3 h, the Cmax [2, 10] was 610 ng/mL and the AUC(0-t) [2, 10] was 2680 ng·h/mL. It also gave a Tmax ([2]; po, 600 mg, 600 mg BID oral, n = 3, Day 1, read-out: T max, median (range)) of 2 h, a half-life ([2]; po, 600 mg, 600 mg BID oral, n = 3, Day 1, read-out: t 1/2, median (range) (converted)) of 2.79 h and a Cmax [2, 11] of 980 ng/mL. For the same compound, the AUC(0-t) [2, 11] was 4880 ng·h/mL, the Tmax ([2]; po, 600 mg, 600 mg BID oral, n = 3, Day 15, read-out: T max, median (range)) was 2 h and the half-life ([2]; po, 600 mg, 600 mg BID oral, n = 3, Day 15, read-out: t 1/2, median (range) (converted)) was 2.27 h. It also gave a Tmax ([2]; po, oral doses of 200–600 mg BID, all cohorts, read-out: Tmax range) of 0.5 to 4 h, a Tmax ([2]; po, oral doses of 200–600 mg BID, all cohorts, read-out: median Tmax) of 2 h and an AUC(0-inf) ([2]; 200 mg BID oral, n = 3, Day 1) of 4390 ng·h/mL. For the same compound, the AUC(0-inf) ([2]; 400 mg BID oral, n = 3, Day 1) was 3840 ng·h/mL, the AUC(0-inf) ([2]; 600 mg BID oral, n = 3, Day 1) was 3000 ng·h/mL and the observed human half-life [3] was 9.0 h. The detection in urine [4] was “detected in the urine of all patients”, the “amount in urine, percent relative to the total dose administered, range” value ([4]; 24-h urine) was 0.0439 to 0.356% and the CL renal ([4]; human, oral, 24-h urine, Days 1 and 15, read-out: mean renal clearance (CLr), range) was 1.43 to 2.98 mL/min. For the same compound, the “potential target organs in toxicology studies” value [5] was “liver and gall bladder, gastrointestinal tract, hematopoietic system, testes/epididymis, and cardiovascular system”, the “selectivity for FAK and Pyk2 over other nontarget kinases” value (other nontarget kinases) was “more than 100 fold” and the IC50 (recombinant human Pyk2) was 600 pM.
